Peptide text beside a SMILES is read from it.
B1: G-CSF: human G-CSF, ligand stimulating G-CSFR/gp130 chimera proteins (protein, UniProt P09919 31-207, looked up)
Granulocyte …: TPLGPASSLPQSFLLKCLEQVRKIQGDGAALQEKLVSECATYKLCHPEELVLLGHSLGIPWAPLSSCPSQALQLAGCLSQLHSGLFLYQGLLQALEGISPELGPTLDTLQLDVADFATTIWQQMEELGMAPALQPTQGAMPAFASAFQRRAGGVLVASHLQSFLEVSYRVLRHLAQP

What was measured:
[1] = tested on: STAT3; assay: Immunoblot of phosphotyrosine 705 of STAT3 in F11 cells; assay type: cell-based
Method: E) F11 cells were transfected with an indicated amount of pRNA-U6.1/Shuttle vector (empty), pRNA-U6.1/Shuttle-IL-6R siRNA, or pRNA-U6.1/Shuttle-LIFR siRNA. At 48 hrs after transfection, the cells were treated with 100 ng/ml IL-6, 100 ng/ml CNTF or 1 μM HNG at 37° for 15 min, and harvested. The results of immunoblot analysis using anti-phophoSTAT3 ([…]) antibody and anti-STAT3 antibody were shown in photos. A) F11 cells were added with an indicated amount of HN, HNG or HNA and harvested 15 min later for immunoblot analysis with antibodies recognizing phosphotyrosine 705 of STAT3 or STAT3. The results are shown in photos. B) F11 cells were transfected with 0.5 μg of pRNA-U1.6/Shuttle vector, pRNA-U6.1/Shuttle-WSX-1 siRNA, pRNA-U6.1/Shuttle-CNTF-R siRNA, both pRNA-U6.1/Shuttle-WSX-1 siRNA and pRNA-U6.1/Shuttle-CNTF-R siRNA (0.5 μg each), or pRNA-U6.1/Shuttle-FPR2 siRNA. The total amount of vectors was adjusted to be 1.0 μg by including a backbone vector. […] The results are shown in photos. Cell lysates (10-20 μg/lane) or pulled-down precipitates were subject to SDS-PAGE, and the proteins separated on the gel were transferred onto polyvinylidene difluoride membranes as described (Hashimoto et al, 2000). Visualization of the immunoreactive protein bands was performed by ECL (Amersham Pharmacia Biotech, Uppsala, Sweden).

[2] = tested on: G-CSFR/gp130 chimera proteins; assay: G-CSF stimulation of G-CSFR/gp130 chimera proteins in F11 cells, cell mortality by Trypan blue exclusion; assay type: cell-based, human; details: 100 nM
Method: B) F11 cells were transfected with 0.5 μg of the pcDNA3 vector or pcDNA3-APP in association with 0.5 μg of the pEFBos vector or the pEFBos vectors encoding the extracellular domain of the human G-CSF receptor fused to the full transmembrane domain and a C-terminally truncated intracytoplasmic domain of gp130 (named “G-CSFR/gp130”). G-CSFR/gp130 (277) contains the full intracytoplasmic domain of gp130 corresponding to amino acids 1-277, while G-CSFR/gp130 (25), (68), and (133) contain the intracytoplasmic domains corresponding to amino acids 1-25, 1-68, and 1-133, respectively. At 24 hr after transfection, the cells were added with indicated amounts of human G-CSF. Cell mortality was determined by Trypan blue exclusion assay at 72 hr after transfection. The results of immunoblot analysis of the expression of […] are shown in photos.
C) Instead of the pcDNA3-V6421-APP vector, pcDNA3-K595 N/M596L-APP (NL-APP), M146L-PS1 and N141-I-PS2 vectors were used to do the same experiments as in FIG. 2A. The results of immunoblot analysis of the expression of NL-APP, M146L-PS1 and N141-I-PS2 are shown in photos.
D) F11 cells were transfected with 0.5 μg of the pEFBos vector or pEF-G85R-SOD1 in association with 0.5 μg of the pEFBos vector or each pEFBos vector encoding G-CSFR/gp130 (277) or G-CSFR/gp130 (25). At 24 hr after transfection, the cells were added with indicated amounts of human G-CSF. Cell mortality was determined by Trypan blue exclusion assay at 72 hr after transfection. The results of the expression of G85R-SOD1, which were confirmed by the immunoblot analysis, are shown in photos.
Neurohybrid F11 cells and pcDNA3 vectors encoding V642I-APP, K595N/M596L-APP (NL-APP), M146L-PS1, and N141I-PS2 cDNA were prepared as already described (Hashimoto et al, 2000, 2001a, 2003). pCAG-human gp130 and pCAG-human gp130 ED (the extracellular domain of human gp130) were prepared as described (Kumanogoh et al., 1997). pcDNA3 vectors encoding the extracellular domain of the G-CSF receptor fused to the full-length transmembrane domain and various portions of the intracellular domains of human gp130, were prepared as described (Fukada et al, 1996). The intracellular domain of gp130 was C-terminally truncated. A chimera protein named G-277 contained a 277 amino acid-long full intracellular domain of gp130 (SEQ ID NO:35), while G-195, G-133, G-68, and G-25 contained the amino acids 1-195 (SEQ ID NO:36), 1-133 (SEQ ID NO:37), 1-68 (SEQ ID NO:38), and 1-25 (SEQ ID NO:39) intracellular portions, respectively. C-terminally myc-tagged human WSX-1 and myc-tagged mouse CREME9 cDNAs were amplified from human and mouse embryo cDNA (BioChain) by PCR using sets of sense primers and antisense primers: 5′-[…]-3′ (SEQ ID NO:3) and 5′-[…]-3′ (SEQ ID NO:4) for human WSX-1; 5′-[…]-3′ (SEQ ID NO:5); and 5′-[…]-3′ (SEQ ID NO:6) for mouse CREME9. Plasmids encoding C-terminally V5-tagged human CNTF-R (V %-CNTF-R) and rat IL-6R (pUCM18-rat IL-6R) were purchased from Invitrogen and American Culture Collection, respectively. A pEFBos vector comprising familial ALS (FALS) gene G85R-SOD1 was kindly provided by Dr. Shoji Tsuji. Cosmid of human wild […] was constructed by inserting a full-length gp130 into a SwaI site of pAxCAwt (TaKaRa).
The transfection procedures were as described (Hashimoto et al, 2000, 2001a, 2003). F11 cells, seeded at 7×10^4/well in 6-well dishes, were transfected with indicated vectors. Transfection efficiency in these protocols has been determined to be invariably around 70%. At 72 hrs after transfection, the Trypan blue exclusion assay and LDH assay were performed as a cell-death assay and the WST-8 assay was performed as cell-viability assays (Hashimoto et al, 2000, 2001a b, 2003). HN was added to the culture medium usually at 5 hrs after transfection, but in some cases at 24 hrs after transfection.

| Molecule | phosphorylation of tyrosine 705 of STAT3 ([1]; F11 cells, 15 min) | phosphorylation of tyrosine 705 of STAT3 ([1]; decrease of expression of endogenous CNTF-R or WSX-1 by siRNA) | prevention of neuronal cell death induced by mutant Cu/Zn-superoxide dismutase (G85R-SOD1) [2] | prevention of neuronal cell death induced by V642I-APP ([2]; G-25 or G-68 expressed) |
| --- | --- | --- | --- | --- |
| CC[C@H](C)[C@H](NC(=O)[C@H](CCC(=O)O)NC(=O)CNC(=O)[C@@H](NC(=O)[C@H](CC(C)C)NC(=O)[C@H](CC(C)C)NC(=O)[C@H](CC(C)C)NC(=O)[C@H](CC(C)C)NC(=O)[C@H](CS)NC(=O)[C@H](CO)NC(=O)[C@H](Cc1ccccc1)NC(=O)CNC(=O)[C@H](CCCNC(=N)N)NC(=O)[C@@H]1CCCN1C(=O)[C@H](C)NC(=O)[C@@H](N)CCSC)[C@@H](C)O)C(=O)N[C@@H](CC(=O)O)C(=O)N[C@@H](CC(C)C)C(=O)N1CCC[C@H]1C(=O)N[C@H](C(=O)N[C@@H](CCCCN)C(=O)N[C@@H](CCCNC(=N)N)C(=O)N[C@@H](CCCNC(=N)N)C(=O)N[C@@H](C)C(=O)O)C(C)C [HNG, S14 G-Humanin] (H-MAPRGFSCLLLLTGEIDLPVKRRA-OH; N-terminus and C-terminus assumed) | increased | almost completely inhibited |  |  |
| B1 |  |  | did not prevent | did not prevent |

Reference: patent publication US8173771B2, “Humanin receptor or humanin-like polypeptide receptor” (Keio Univeristy, priority 2005, dated 2012)
